Data from US9938322B2, “β-hairpin peptidomimetics” (priority 2013, dated 2018).
*1 amine or outer side, *2 acyl side, *3 side chain or, on linkers, in order; H or OH if unused. Where a SMILES comes first, the peptide text is derived from it. [ ]: non-standard residue; d: D form. Tic(7-OH) = O=C(O)[C@@H]1Cc2ccc(O)cc2CN1; Pro(3S-OH) = O=C(O)[C@H]1NCC[C@@H]1O; Dap(CONH2) = NC(=O)NC[C@H](N)C(=O)O; X1 = CC(C)NC[C@H](N[*:1])C(=O)[*:2]; Cha = N[C@@H](CC1CCCCC1)C(=O)O; Chg = N[C@H](C(=O)O)C1CCCCC1; Tle = CC(C)(C)[C@H](N)C(=O)O; dDab = NCC[C@@H](N)C(=O)O; hSer = N[C@@H](CCO)C(=O)O; Orn = NCCC[C@H](N)C(=O)O; Dab = NCC[C@H](N)C(=O)O; Nva = CCC[C@H](N)C(=O)O; Dap = NC[C@H](N)C(=O)O

test system: human red blood cells (hRBC); assay: Hemolysis of human red blood cells; assay type: cell-based; conditions: red cells of human, 1 h, 100
Outline: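 Washed fresh human erythrocytes (20% v/v, about 0.9×10^9 cells/ml final) incubated with peptide at 100 μg/ml for 1 h at 37° C with shaking. Supernatant OD540 read; hemolysis expressed relative to 2.5% Triton X-100 (100%) and PBS with 0.001% acetic acid (0%).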

| SMILES | Hemolysis at 100 μg/ml [%] |
| --- | --- |
| CC(C)C[C@@H]1NC(=O)[C@@H]2CCCN2C(=O)[C@H]2CCCN2C(=O)[C@H](CO)NC(=O)[C@H](CO)NC(=O)[C@H](C(C)(C)C)NC(=O)[C@H](CCN)NC(=O)[C@H](Cc2c[nH]c3ccccc23)NC(=O)[C@H](CCN)NC(=O)[C@@H](CCN)NC(=O)[C@H](CCCN)NC(=O)[C@H](CCN)NC(=O)[C@H](Cc2ccc(O)cc2)NC(=O)[C@H](CO)NC1=O [compound 117] (cyclo(LSY[Dab][Orn][dDab][Dab]W[Dab][Tle]SS[dP]P)) | 3 |
| CC(C)C[C@@H]1NC(=O)[C@@H]2CCCN2C(=O)[C@H]2CCCN2C(=O)[C@H](CO)NC(=O)[C@H](C)NC(=O)[C@H](CC2CCCCC2)NC(=O)[C@H](CCN)NC(=O)[C@H](Cc2c[nH]c3ccccc23)NC(=O)[C@H](CCN)NC(=O)[C@@H](CCN)NC(=O)[C@H](CCCCN)NC(=O)[C@H](CCN)NC(=O)[C@H](Cc2ccc(O)cc2)NC(=O)[C@H](C)NC1=O [compound 128] (cyclo(LAY[Dab]K[dDab][Dab]W[Dab][Cha]AS[dP]P)) | 2 |
| CC[C@H](C)[C@@H]1NC(=O)[C@@H]2CCCN2C(=O)[C@H]2CCCN2C(=O)[C@H](CO)NC(=O)[C@H](C)NC(=O)[C@H](C2CCCCC2)NC(=O)[C@H](CCN)NC(=O)[C@H](Cc2c[nH]c3ccccc23)NC(=O)[C@H](CCN)NC(=O)[C@@H](CCN)NC(=O)[C@H](CCCN)NC(=O)[C@H](CCN)NC(=O)[C@H](C(C)(C)C)NC(=O)[C@H](CO)NC1=O [compound 136] (cyclo(IS[Tle][Dab][Orn][dDab][Dab]W[Dab][Chg]AS[dP]P)) | 5 |
| C[C@@H]1NC(=O)[C@H](C(C)(C)C)NC(=O)[C@H](CCN)NC(=O)[C@H](Cc2c[nH]c3ccccc23)NC(=O)[C@H](CCN)NC(=O)[C@@H](CCN)NC(=O)[C@H](CCCN)NC(=O)[C@H](CCN)NC(=O)[C@H](CC2CCCCC2)NC(=O)[C@H](CN)NC(=O)[C@H](Cc2c[nH]c3ccccc23)NC(=O)[C@@H]2CCCN2C(=O)[C@H]2CCCN2C(=O)[C@H](CO)NC1=O [Ex. 10] (cyclo(W[Dap][Cha][Dab][Orn][dDab][Dab]W[Dab][Tle]AS[dP]P)) | 3.5 |
| C[C@@H]1NC(=O)[C@H](C(C)(C)C)NC(=O)[C@H](CCN)NC(=O)[C@H](Cc2c[nH]c3ccccc23)NC(=O)[C@H](CCN)NC(=O)[C@@H](CCN)NC(=O)[C@H](CCCN)NC(=O)[C@H](CCN)NC(=O)[C@H](CC2CCCCC2)NC(=O)[C@H](CN)NC(=O)[C@H](Cc2c[nH]c3ccccc23)NC(=O)[C@@H]2Cc3ccc(O)cc3CN2C(=O)[C@H]2CCCN2C(=O)[C@H](CO)NC1=O [compound 61] (cyclo(AS[dP][Tic(7-OH)]W[Dap][Cha][Dab][Orn][dDab][Dab]W[Dab][Tle])) | 2 |
| CCC[C@@H]1NC(=O)[C@@H]2CCCN2C(=O)[C@H]2CCCN2C(=O)[C@H](CO)NC(=O)[C@H](C)NC(=O)[C@H](C2CCCCC2)NC(=O)[C@H](CCN)NC(=O)[C@H](Cc2c[nH]c3ccccc23)NC(=O)[C@H](CCN)NC(=O)[C@@H](CCN)NC(=O)[C@H](CCCN)NC(=O)[C@H](CCN)NC(=O)[C@H](CC2CCCCC2)NC(=O)[C@H](C)NC1=O [compound 150] (cyclo([Nva]A[Cha][Dab][Orn][dDab][Dab]W[Dab][Chg]AS[dP]P)) | 4 |
| CC[C@H](C)[C@@H]1NC(=O)[C@@H]2CCCN2C(=O)[C@H]2CCCN2C(=O)[C@H]([C@@H](C)O)NC(=O)[C@H]([C@@H](C)O)NC(=O)[C@H](C(C)(C)C)NC(=O)[C@H](CCN)NC(=O)[C@H](Cc2c[nH]c3ccccc23)NC(=O)[C@H](CCN)NC(=O)[C@@H](CCN)NC(=O)[C@H](CCN)NC(=O)[C@H](CCN)NC(=O)[C@H](Cc2ccc(O)cc2)NC(=O)[C@H](C)NC1=O [compound 133] (cyclo(IAY[Dab][Dab][dDab][Dab]W[Dab][Tle]TT[dP]P)) | 1 |
| CC(C)C[C@@H]1NC(=O)[C@@H]2CCCN2C(=O)[C@H]2CCCN2C(=O)[C@H](CO)NC(=O)[C@H](C)NC(=O)[C@H](C(C)(C)C)NC(=O)[C@H](CCN)NC(=O)[C@H](Cc2c[nH]c3ccccc23)NC(=O)[C@H](CCN)NC(=O)[C@@H](CCN)NC(=O)[C@H](CCCN)NC(=O)[C@H](CCN)NC(=O)[C@H](CC2CCCCC2)NC(=O)[C@H](CO)NC1=O [compound 135] (cyclo(LS[Cha][Dab][Orn][dDab][Dab]W[Dab][Tle]AS[dP]P)) | 5 |
| CC(C)NC[C@@H]1NC(=O)[C@H](Cc2c[nH]c3ccccc23)NC(=O)[C@@H]2CCCN2C(=O)[C@H]2CCCN2C(=O)[C@H](CO)NC(=O)[C@H](C)NC(=O)[C@H](C(C)(C)C)NC(=O)[C@H](CCO)NC(=O)[C@H](Cc2c[nH]c3ccccc23)NC(=O)[C@H](CCN)NC(=O)[C@@H](CCN)NC(=O)[C@H](CCCN)NC(=O)[C@H](CCN)NC(=O)[C@H](CC2CCCCC2)NC1=O [compound 9] (cyclo(W[X1][Cha][Dab][Orn][dDab][Dab]W[hSer][Tle]AS[dP]P)) | 2 |
| CC(C)C[C@@H]1NC(=O)[C@@H]2CCCN2C(=O)[C@H]2CCCN2C(=O)[C@H](CO)NC(=O)[C@H](CCN)NC(=O)[C@H](C(C)(C)C)NC(=O)[C@H](CCN)NC(=O)[C@H](Cc2c[nH]c3ccccc23)NC(=O)[C@H](CCN)NC(=O)[C@@H](CCN)NC(=O)[C@H](CCCN)NC(=O)[C@H](CCN)NC(=O)[C@H](Cc2ccc(O)cc2)NC(=O)[C@H]([C@@H](C)O)NC1=O [compound 115] (cyclo(LTY[Dab][Orn][dDab][Dab]W[Dab][Tle][Dab]S[dP]P)) | 0 |
| CC(C)C[C@@H]1NC(=O)[C@@H]2[C@@H](O)CCN2C(=O)[C@H]2CCCN2C(=O)[C@H](CO)NC(=O)[C@H](CNC(N)=O)NC(=O)[C@H](C(C)(C)C)NC(=O)[C@H](CCN)NC(=O)[C@H](Cc2c[nH]c3ccccc23)NC(=O)[C@H](CCN)NC(=O)[C@@H](CCN)NC(=O)[C@H](CCCN)NC(=O)[C@H](CCN)NC(=O)[C@H](CC2CCCCC2)NC(=O)[C@H](CO)NC1=O [compound 59] (cyclo([Cha][Dab][Orn][dDab][Dab]W[Dab][Tle][Dap(CONH2)]S[dP][Pro(3S-OH)]LS)) | 1 |
| CC(C)C[C@@H]1NC(=O)[C@@H]2CCCN2C(=O)[C@H]2CCCN2C(=O)[C@H](CO)NC(=O)[C@H](CO)NC(=O)[C@H](C(C)(C)C)NC(=O)[C@H](CCN)NC(=O)[C@H](Cc2c[nH]c3ccccc23)NC(=O)[C@H](CCN)NC(=O)[C@@H](CCN)NC(=O)[C@H](CCCN)NC(=O)[C@H](CCN)NC(=O)[C@H](CC2CCCCC2)NC(=O)[C@H](C)NC1=O [compound 152] (cyclo(LA[Cha][Dab][Orn][dDab][Dab]W[Dab][Tle]SS[dP]P)) | 5 |
| CC(C)C[C@@H]1NC(=O)[C@@H]2CCCN2C(=O)[C@H]2CCCN2C(=O)[C@H](CO)NC(=O)[C@H](CC(N)=O)NC(=O)[C@H](C(C)(C)C)NC(=O)[C@H](CCN)NC(=O)[C@H](Cc2c[nH]c3ccccc23)NC(=O)[C@H](CCN)NC(=O)[C@@H](CCN)NC(=O)[C@H](CCCN)NC(=O)[C@H](CCN)NC(=O)[C@H](Cc2ccc(O)cc2)NC(=O)[C@H](CC(N)=O)NC1=O [compound 121] (cyclo(LNY[Dab][Orn][dDab][Dab]W[Dab][Tle]NS[dP]P)) | 0 |
| CC[C@H](C)[C@@H]1NC(=O)[C@@H]2CCCN2C(=O)[C@H]2CCCN2C(=O)[C@H](CO)NC(=O)[C@H](C)NC(=O)[C@H](C(C)(C)C)NC(=O)[C@H](CCN)NC(=O)[C@H](Cc2c[nH]c3ccccc23)NC(=O)[C@H](CCN)NC(=O)[C@@H](CCN)NC(=O)[C@H](CCCN)NC(=O)[C@H](CCN)NC(=O)[C@H](Cc2ccc(O)cc2)NC(=O)[C@H](C)NC1=O [compound 125] (cyclo(IAY[Dab][Orn][dDab][Dab]W[Dab][Tle]AS[dP]P)) | 0 |
| CC(C)C[C@@H]1NC(=O)[C@@H]2CCCN2C(=O)[C@H]2CCCN2C(=O)[C@H](CO)NC(=O)[C@H](C)NC(=O)[C@H](C(C)(C)C)NC(=O)[C@H](CCN)NC(=O)[C@H](Cc2c[nH]c3ccccc23)NC(=O)[C@H](CCN)NC(=O)[C@@H](CCN)NC(=O)[C@H](CCCN)NC(=O)[C@H](CCN)NC(=O)[C@H](Cc2ccc(O)cc2)NC(=O)[C@H](C)NC1=O [compound 43] (cyclo(LAY[Dab][Orn][dDab][Dab]W[Dab][Tle]AS[dP]P)) | 1 |
| CCC[C@@H]1NC(=O)[C@@H]2CCCN2C(=O)[C@H]2CCCN2C(=O)[C@H](CO)NC(=O)[C@H](C)NC(=O)[C@H](C(C)(C)C)NC(=O)[C@H](CCN)NC(=O)[C@H](Cc2c[nH]c3ccccc23)NC(=O)[C@H](CCN)NC(=O)[C@@H](CCN)NC(=O)[C@H](CCCN)NC(=O)[C@H](CCN)NC(=O)[C@H](Cc2ccc(O)cc2)NC(=O)[C@H](CO)NC1=O [compound 47] (cyclo([Nva]SY[Dab][Orn][dDab][Dab]W[Dab][Tle]AS[dP]P)) | 1 |
| CC(C)C[C@@H]1NC(=O)[C@@H]2CCCN2C(=O)[C@H]2CCCN2C(=O)[C@H](CO)NC(=O)[C@H](C)NC(=O)[C@H](C2CCCCC2)NC(=O)[C@H](CCN)NC(=O)[C@H](Cc2c[nH]c3ccccc23)NC(=O)[C@H](CCN)NC(=O)[C@H](CCN)NC(=O)[C@H](CCCN)NC(=O)[C@H](CCN)NC(=O)[C@H](Cc2ccc(O)cc2)NC(=O)[C@H](CO)NC1=O [compound 94] (cyclo(LSY[Dab][Orn][Dab][Dab]W[Dab][Chg]AS[dP]P)) | 0 |
| CCC[C@@H]1NC(=O)[C@@H]2CCCN2C(=O)[C@H]2CCCN2C(=O)[C@H](CO)NC(=O)[C@H](C)NC(=O)[C@H](C(C)(C)C)NC(=O)[C@H](CCN)NC(=O)[C@H](Cc2c[nH]c3ccccc23)NC(=O)[C@H](CCN)NC(=O)[C@@H](CCN)NC(=O)[C@H](CCCN)NC(=O)[C@H](CCN)NC(=O)[C@H](Cc2ccc(O)cc2)NC(=O)[C@H](C)NC1=O [compound 48] (cyclo([Nva]AY[Dab][Orn][dDab][Dab]W[Dab][Tle]AS[dP]P)) | 1 |
